Reference: paper PMC10905995, “Strategy for the Enzymatic Acylation of the Apple Flavonoid Phloretin Based on Prior α-Glucosylation” (Journal of Agricultural and Food Chemistry, 2024)
Converted amounts (≈) assume the structure as drawn.

Key:
[1] = Aqueous solubility (saturated conditions, 3 days, UV 297 nm); format: physicochemical; conditions: water, 25 °C, thermodynamic from solid
Protocol: The compounds were incubated at 25 °C in water (saturated conditions) during 3 days under orbital stirring (1000 rpm). Then, the samples were centrifuged, and the supernatants (200 μL) were analyzed in triplicate in a 96-well plate, using a phloretin calibration curve in methanol (0–200 μg/mL). The absorbance was measured at 297 nm in a UV–vis spectrophotometer (Tecan Infinite M200).

[2] = In vitro percutaneous absorption, Franz static diffusion cells; format: in vitro ADME; conditions: pig skin biopsies, 24 h exposure; for effect of acylation on skin absorption: versus phloretin and 4′-O-α-glucoside
Protocol: The study was carried out in vitro with pig biopsies placed on Franz static diffusion cells (3 mL, 1.86 cm^2 of exposed area, […], Lara-Spiral, Courtenon, France) in order to determine the distribution of the active compound (API) at the different skin layers after an exposure time of 24 h. All materials and procedures for this test have been described in a previous report employing phloretin and two glucosides.[33] The concentration of the extracted active compound was determined with the HPLC method described before.
Figure 6 In vitro percutaneous absorption of acylated derivatives of phloretin and their precursors (phloretin and its 4′-O-α-glucoside) within the different skin layers. W is the surface excess, SC is the stratum corneum, E is the epidermis, D is the dermis, FR is the fluid receptor, and Perc. Abs. is the percutaneous absorption. The results are expressed as μg/cm^2 of the active pharmaceutical ingredient (API). Mean values ± standard deviations, n = 3; *p < 0.05 vs phloretin; ^#p < 0.05 vs α-Glc-phloretin.

[3] = set-up: method as in doi:10.1002/adsc.202100201; conditions: cited from earlier work

Row | solubility at 3 days [1] [µg/mL] | effect of acylation on skin absorption [2] | percutaneous absorption, increase versus phloretin and 4′-O-α-glucoside [2] | Structure (SMILES) | aqueous solubility greater than aglycone ([3]; versus phloretin aglycone) [fold] | solubility ([3]; water, 25 °C, data available in a previous article) [µg/mL]
1 | 7.1 ± 0.3 (≈ 10.5 µM) | no significant effect |  | CCCCCCCCCCCCCCCC(=O)OC[C@H]1O[C@H](Oc2cc(O)c(C(=O)CCc3ccc(O)cc3)c(O)c2)[C@H](O)[C@@H](O)[C@@H]1O [1c, phloretin 4′-O-(6-O-palmitoyl)-α-D-glucopyranoside] |  | 
2 | 22.1 ± 0.5 (≈ 39.3 µM) | no significant effect |  | CCCCCCCC(=O)OC[C@H]1O[C@H](Oc2cc(O)c(C(=O)CCc3ccc(O)cc3)c(O)c2)[C@H](O)[C@@H](O)[C@@H]1O [1a, phloretin 4′-O-(6-O-octanoyl)-α-D-glucopyranoside] |  | 
3 | 6 ± 0.2 (≈ 9.7 µM) |  | approximately 3 fold | CCCCCCCCCCCC(=O)OC[C@H]1O[C@H](Oc2cc(O)c(C(=O)CCc3ccc(O)cc3)c(O)c2)[C@H](O)[C@@H](O)[C@@H]1O [1b, phloretin 4′-O-(6-O-lauroyl)-α-D-glucopyranoside] |  | 
4 |  |  |  | O=C(CCc1ccc(O)cc1)c1c(O)cc(O[C@H]2O[C@H](CO)[C@@H](O)[C@H](O)[C@H]2O)cc1O [phloretin 4′-O-α-D-glucoside, phloretin 4′-O-α-D-glucopyranoside] | 71 | 1644 ± 101 (≈ 3770 µM)
